system: Wiga rats; assay: Reserpine interaction test in rats; assay type: in vivo, rat; conditions: PO, Time 60, reserpine 10 mg/kg SC, -1 h

| Structure (SMILES) | ED50 reversal of reserpine-induced ptosis |
| --- | --- |
| Cc1cc(-c2cnn3c2C(=O)N(c2ccc(C(F)(F)F)cc2)CC3(C)C)ccn1 [compound 171] | 5 mg/kg |

same assay, conditions: Rattus norvegicus, PO, Time 60, reserpine 10 mg/kg SC, -1 h, read-out: ED50 reversal of reserpine-induced ptosis

| Structure (SMILES) | ED50 |
| --- | --- |
| CNc1cc(-c2cnn3c2C(=O)N(c2ccc(C(F)(F)F)cc2)C[C@@H]3C)ccn1 [compound 147] | 7.94 mg/kg |
| COc1cc(Cl)ccc1N1CC(C)n2ncc(-c3ccnc(C)c3)c2C1=O (stereo not shown) [compound 161] | 3.15 mg/kg |
| Cc1cc(-c2cnn3c2C(=O)N(c2ccc(Cl)cc2Cl)C[C@@H]3C)ccn1 [compound 167] | 0.1 mg/kg |
| Cc1cc(-c2cnn3c2C(=O)N(c2ccc(Cl)cc2C)CC3C)ccn1 (stereo not shown) [compound 172] | 1.26 mg/kg |
| Cc1cc(-c2cnn3c2C(=O)N(c2ccc(C(F)(F)F)cn2)CC3C)cc(C)n1 (stereo not shown) [compound 194] | 5 mg/kg |
| CCOc1ccc(Cl)c(N2CC(C)n3ncc(-c4ccnc(C)c4)c3C2=O)n1 (stereo not shown) [compound 195] | 1.25 mg/kg |
